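48-hour exposure; five concentrations; linearly interpolated endpoints. GI50 = concentration required for 50% inhibition of growth. TGI marks complete inhibition of growth.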
How the values were obtained:
Assay in all cases: growth of human tumour cells (NCI), 48 h
COLO 205 colon = test system: COLO 205 colon
PC-3 prostate = test system: PC-3 prostate
SK-MEL-28 melanoma = test system: SK-MEL-28 melanoma
RPMI-8226 leukemia = test system: RPMI-8226 leukemia
UACC-257 melanoma = test system: UACC-257 melanoma
SN12C renal = test system: SN12C renal
CCRF-CEM leukemia = test system: CCRF-CEM leukemia
OVCAR-4 ovarian = test system: OVCAR-4 ovarian
MOLT-4 leukemia = test system: MOLT-4 leukemia
RXF 393 renal = test system: RXF 393 renal

Compound: C=C(C)[C@H]1C2=CC(C)=C(O2)[C@@H](O[C@@H]2c3oc(cc3C)[C@H](C(=C)C)[C@H]3C=C(CC[C@H]2C(=C)C)C(=O)O3)[C@H](C(=C)C)CCC2=C[C@H]1OC2=O
- TGI (COLO 205 colon): > 100 µM
- TGI (PC-3 prostate): > 100 µM
- TGI (SK-MEL-28 melanoma): > 100 µM
- TGI (RPMI-8226 leukemia): > 100 µM
- TGI (UACC-257 melanoma): > 100 µM
- TGI (SN12C renal): > 100 µM
- TGI (CCRF-CEM leukemia): > 100 µM
- TGI (OVCAR-4 ovarian): > 100 µM
- TGI (MOLT-4 leukemia): > 100 µM

Compound: CC1(C)CC2(CC(C)(C)N1O)NC(=O)OC2=O
- TGI (COLO 205 colon): > 100 µM
- TGI (SK-MEL-28 melanoma): > 100 µM
- TGI (RPMI-8226 leukemia): > 100 µM
- TGI (RXF 393 renal): > 100 µM
- TGI (UACC-257 melanoma): > 100 µM
- TGI (SN12C renal): > 100 µM
- TGI (CCRF-CEM leukemia): > 100 µM
- TGI (OVCAR-4 ovarian): > 100 µM
- TGI (MOLT-4 leukemia): > 100 µM

Compound: CCOC(=O)Nn1c(CC#N)nnc1Cc1ccccc1
- TGI (PC-3 prostate): > 100 µM
- TGI (SK-MEL-28 melanoma): > 100 µM
- TGI (RPMI-8226 leukemia): > 100 µM
- TGI (RXF 393 renal): > 100 µM
- TGI (UACC-257 melanoma): > 100 µM
- TGI (SN12C renal): > 100 µM
- TGI (MOLT-4 leukemia): > 100 µM

Compound: COc1ccc(C(=O)CC(c2ccccc2)[C@H]2C(c3ccc(OC)cc3)=Nc3c(nc(SC)n(C)c3=O)NC2c2ccccc2)cc1 (some centres not stated)
- TGI (COLO 205 colon): > 100 µM
- TGI (PC-3 prostate): > 100 µM
- TGI (SK-MEL-28 melanoma): > 100 µM
- TGI (RPMI-8226 leukemia): > 100 µM
- TGI (RXF 393 renal): > 100 µM
- TGI (UACC-257 melanoma): > 100 µM
- TGI (SN12C renal): > 100 µM
- TGI (CCRF-CEM leukemia): > 100 µM
- TGI (MOLT-4 leukemia): > 100 µM

Compound: CCOC(=O)c1cc(C)nc2c1c(=O)n(-c1ccccc1)c(=O)n2CCCCN1CCN(c2ccccc2)CC1
- TGI (COLO 205 colon): > 100 µM
- TGI (PC-3 prostate): > 100 µM
- TGI (SK-MEL-28 melanoma): > 100 µM
- TGI (RPMI-8226 leukemia): 77.3 µM
- TGI (RXF 393 renal): > 100 µM
- TGI (UACC-257 melanoma): 99.8 µM
- TGI (SN12C renal): > 100 µM
- TGI (OVCAR-4 ovarian): > 100 µM
- TGI (MOLT-4 leukemia): > 100 µM

Compound: c1ccc(CN2CCC(Nc3ccccc3)(c3nnnn3Cc3ccccc3)CC2)cc1
- TGI (COLO 205 colon): 28.9 µM
- TGI (SK-MEL-28 melanoma): 36.5 µM
- TGI (RPMI-8226 leukemia): > 100 µM
- TGI (RXF 393 renal): 73.8 µM
- TGI (UACC-257 melanoma): 34.5 µM
- TGI (SN12C renal): > 100 µM
- TGI (CCRF-CEM leukemia): 88.3 µM
- TGI (OVCAR-4 ovarian): > 100 µM
- TGI (MOLT-4 leukemia): > 100 µM

Compound: CN(C)CCn1c(CO)nc2c1c(=O)n(C)c(=O)n2C
- TGI (COLO 205 colon): > 100 µM
- TGI (PC-3 prostate): > 100 µM
- TGI (SK-MEL-28 melanoma): > 100 µM
- TGI (RPMI-8226 leukemia): > 100 µM
- TGI (RXF 393 renal): > 100 µM
- TGI (UACC-257 melanoma): > 100 µM
- TGI (SN12C renal): > 100 µM
- TGI (CCRF-CEM leukemia): > 100 µM
- TGI (OVCAR-4 ovarian): > 100 µM

Compound: Cc1cc(OC(=O)NCn2cc(-c3ccccc3)nn2)ccc1Cl
- TGI (COLO 205 colon): > 100 µM
- TGI (PC-3 prostate): > 100 µM
- TGI (SK-MEL-28 melanoma): > 100 µM
- TGI (RPMI-8226 leukemia): > 100 µM
- TGI (UACC-257 melanoma): > 100 µM
- TGI (SN12C renal): > 100 µM
- TGI (CCRF-CEM leukemia): > 100 µM
- TGI (OVCAR-4 ovarian): > 100 µM
- TGI (MOLT-4 leukemia): > 100 µM

Compound: Cc1cc2c([nH]c3ccccc32)c(O)c1-c1c(C)cc2c([nH]c3ccccc32)c1O
- TGI (PC-3 prostate): 25.9 µM
- TGI (SK-MEL-28 melanoma): 55 µM
- GI50 (RPMI-8226 leukemia): 3.85 µM
- TGI (RPMI-8226 leukemia): 18.5 µM
- TGI (RXF 393 renal): 23.1 µM
- TGI (UACC-257 melanoma): 30.9 µM
- TGI (SN12C renal): 6.44 µM
- TGI (OVCAR-4 ovarian): 28.8 µM
- GI50 (MOLT-4 leukemia): 3.62 µM
- TGI (MOLT-4 leukemia): 16.3 µM

Compound: c1ccc(/C(=N/Nc2ccncn2)c2ccccn2)cc1
- TGI (PC-3 prostate): > 100 µM
- TGI (SK-MEL-28 melanoma): > 100 µM
- TGI (RPMI-8226 leukemia): > 100 µM
- TGI (RXF 393 renal): > 100 µM
- TGI (UACC-257 melanoma): > 100 µM
- TGI (SN12C renal): > 100 µM
- TGI (CCRF-CEM leukemia): > 100 µM
- TGI (OVCAR-4 ovarian): > 100 µM
- TGI (MOLT-4 leukemia): 49.2 µM

Compound: COc1cccc(N[C@@H]2c3cc4c(cc3C(c3cc(OC)c(O)c(OC)c3)[C@H]3C(=O)OCC32)OCO4)c1 (some centres not stated)
- TGI (COLO 205 colon): 7.39 µM
- TGI (SK-MEL-28 melanoma): > 61.2 µM
- TGI (RPMI-8226 leukemia): 2.08 µM
- TGI (RXF 393 renal): 7.12 µM
- TGI (UACC-257 melanoma): 34.3 µM
- TGI (CCRF-CEM leukemia): 2.69 µM
- TGI (OVCAR-4 ovarian): 87.9 µM
- TGI (MOLT-4 leukemia): 0.164 µM

— PubChem BioAssay (NCI)
